Read-outs that look alike come from different tables or passages of the source.
Tests used:
human MC4 receptor = molecular target: T1, human MC4 receptor (Homo sapiens, UniProt P32245); test: Human MC4 receptor activation, cAMP production in cells transiently expressing the receptor; type: cell-based; conditions: FreeStyle 293-F cells expressing human MC4 receptor, α-MSH maximum = 100%
T1 construct: expressed in transfected cells; host or cells: FreeStyle 293-F cells (transient, electroporation)
From the text: (§1) (1) Construction of Human MC Receptor-Expressing Vector
(§2) A human MC4 receptor gene (GenBank Accession No.: NM_005912.2), a human MC1 receptor gene (GenBank Accession No.: NM_002386.3), or a human MC3 receptor gene (GenBank Accession No.: NM_019888.3) was introduced into an expression vector pcDNA™ 3.1N/V5-His TOPO (registered trademark) (Thermo Fisher Scientific Inc).
(§3) (2) Construction of Cells Transiently Expressing Human MC Receptor
(§4) An expression vector for a human MC4, MC1, or MC3 receptor was introduced into FreeStyle™ 293-F cells (Thermo Fisher Scientific Inc., product number: R790-07). For the introduction, electroporation was employed. That is, 1×10^7 FreeStyle™ 293-F cells were suspended in 80 μL of an Electroporation Buffer (Thermo Fisher Scientific Inc., product number: B201-100), and 20 μg of the expression vector was added thereto. The resultant was put into a cuvette (OC-100 Processing Assembly, MaxCyte, Inc.) and electroporated with MaxCyte STX (registered trademark) (MaxCyte, Inc.). The cells were cultured for a day, suspended in a Cell Banker (registered trademark) 1 (TAKARA BIO INC. or JUJI FIELD Inc., product number: BLC-1), and stored frozen until they were used.
(§5) (3) Measurement of Amount of cAMP Production
(§6) Measurement was carried out by using a LANCE (registered trademark) Ultra cAMP Kit (PerkinElmer, Inc.) in accordance with the attached instructions. That is, after dissolution in DMSO, the test compound (a final concentration of 1 pM to 30 μM) diluted with an assay buffer (Hank's balanced salt solution, 5 mM 4-(2-hydroxyethyl)-1-piperazineethanesulfonic acid (HEPES), 0.5 mM 3-isobutyl-1-methylxanthine (IBMX), 0.1% bovine serum albumin, pH 7.4), or α-MSH (Bachem Inc., a final concentration of 1 pM to 30 μM) was added to OptiPlate-384 (PerkinElmer, Inc.). Furthermore, the suspension of the cells transiently expressing the human MC4, MC1, or MC3 receptor prepared using the assay buffer was added thereto at 1,000 cells/well, and then left to stand at room temperature for about 1 hour. Thereafter, an Eu-cAMP tracer solution and an ULight™-anti-cAMP solution were added thereto, and then the resulting solution was left to stand at room temperature for about 1 hour. The amount of cAMP was calculated using EnVision (registered trademark) (PerkinElmer Inc.).
(§7) For the agonistic activity, the efficacy (EC50 (μM)) was calculated by a non-linear regression method with a Sigmoid-Emax model, by defining the maximum reaction using α-MSH as 100% and the reaction using the vehicle alone as 0%, respectively.

human MC1 receptor = molecular target: T2, human MC1 receptor (Homo sapiens, UniProt Q01726); test: Human MC1 receptor activation, cAMP production in cells transiently expressing the receptor; type: cell-based; conditions: FreeStyle 293-F cells expressing human MC1 receptor, α-MSH maximum = 100%
T2 construct: expressed in transfected cells; host or cells: FreeStyle 293-F cells (transient, electroporation)
From the text: as §1, §2, §3, §4, §5, §6, §7

human MC3 receptor = molecular target: T3, human MC3 receptor (Homo sapiens, UniProt P41968); test: Human MC3 receptor activation, cAMP production in cells transiently expressing the receptor; type: cell-based; conditions: FreeStyle 293-F cells expressing human MC3 receptor, α-MSH maximum = 100%
T3 construct: expressed in transfected cells; host or cells: FreeStyle 293-F cells (transient, electroporation)
From the text: as §1, §2, §3, §4, §5, §6, §7

[1] = test system: phenylephrine-induced urethral pressure increase; test: Effect on rat urethral pressure (phenylephrine-induced urethral pressure increase); type: in vivo; conditions: read-out: ID40
Protocol: The present Test Example was performed by partially modifying the technique reported as a testing system for evaluating a urethral resistance-reducing action (European Journal of Pharmacology, 679, 127-131 (2012)). Male Wistar rats (Charles River Laboratories Japan, Inc.) were anesthetized with urethane (1.2 g/kg ip), and immobilized in a supine position. The midline incision was performed in the lower abdominal portion such that the bladder was exposed. The bladder apex was incised, and from the incision site, a microchip pressure transducer catheter (3.5 Fr, Millar, Inc) was inserted and implanted into the inside of the urethra. In addition, a cannula for drug administration was implanted into the femoral vein. After the urethral pressure was stabilized, phenylephrine hydrochloride (Sigma-Aldrich Co. LLC., 30 μg/kg) was intravenously administered to induce an increase in the urethral pressure. At an interval of about 30 minutes, the above operation was repeated twice or more so as to confirm the stability of the phenylephrine hydrochloride-induced urethral pressure increasing reaction. Then, a test compound (dissolved in 20% dimethyl acetamide, 10% Cremophor (registered trademark), and 70% physiological saline) was intravenously administered, and after 5 minutes, phenylephrine hydrochloride was administered. The procedure of the administration of the test compound and the administration of phenylephrine hydrochloride was repeated at an interval of about 30 minutes, and 3 to 5 doses of the test compound was evaluated (the test compound was administered at increasing doses). The obtained data was introduced into a personal computer through PowerLab (registered trademark) (ADInstruments, Inc.) and analyzed using LabChart (registered trademark) (ADInstruments, Inc.). For the evaluation, the value (AUC value, mmHg-s) of the area under the urethral pressure for one minute before and after administration of phenylephrine hydrochloride was determined to calculate the difference (ΔAUC value) between the AUC value before the administration of phenylephrine hydrochloride and the AUC value after the administration of phenylephrine hydrochloride. The ΔAUC value obtained before administering the test compound was regarded as being 100%, and based on this, the ratio (reaction rate) of the ΔAUC value of the test compound at each dose was calculated. The dose at which the obtained reaction rate became 60% (40% as an inhibition rate) was defined as ID40, and the ID40 values of the test compounds were calculated by non-linear regression.

rat MC4 receptor = molecular target: T4, rat MC4 receptor (Rattus norvegicus, UniProt P70596); test: Rat MC4 receptor activation, cAMP production in cells transiently expressing the receptor; type: cell-based; conditions: FreeStyle 293-F cells expressing rat MC4 receptor, α-MSH maximum = 100%
T4 construct: expressed in transfected cells; host or cells: FreeStyle 293-F cells (transient, electroporation)
From the text: (1) Construction of Rat MC4 Receptor-Expressing Vector
A rat MC4 receptor gene (GenBank Accession No.: NM_013099.3) was introduced into an expression vector pcDNA™ 3.1N/V5-His TOPO (registered trademark) (Thermo Fisher Scientific Inc.).
(2) Construction of Cells Transiently Expressing Rat MC4 Receptor
as §4, with “rat MC4” for “human MC4, MC1, or MC3”, “Inc.).” for “Inc., product number: R790-07).”, “electroporation buffer” for “Electroporation Buffer”, “Inc.),” for “Inc., product number: B201-100),”, “Inc.),” for “Inc., product number: BLC-1),”
as §5
Measurement was carried out in accordance with the attached instructions, using a LANCE (registered trademark) Ultra cAMP Kit (PerkinElmer, Inc.). That is, after dissolution in DMSO, the test compound (a final concentration of 1 pM to 30 μM) diluted with an assay buffer (Hank's balanced salt solution, 5 mM HEPES, 0.5 mM IBMX, 0.1% bovine serum albumin, pH 7.4), or α-MSH (Bachem Inc., a final concentration of 1 pM to 30 μM) was added to OptiPlate-384 (PerkinElmer, Inc.). Furthermore, the suspension of the cells transiently expressing the rat MC receptor that was prepared using the assay buffer was added thereto at 1,000 cells/well, and then left to stand at room temperature for about 1 hour. Thereafter, an Eu-cAMP tracer solution and an ULight™-anti-cAMP solution were added thereto, and the resulting solution was left to stand at room temperature for about 1 hour. The amount of cAMP was calculated using EnVision (registered trademark) (PerkinElmer Inc).
For the agonistic activity, an efficacy (EC50 (μM)) was calculated by a non-linear regression method with a Sigmoid-Emax model, by defining the maximum reaction using α-MSH as 100% and the reaction using a vehicle alone as 0%, respectively.

[2] = male Wistar rats, urethane anesthesia, intravenous, dose giving 40% inhibition of phenylephrine-induced urethral pressure ΔAUC

T1 sequence (P32245 whole entry): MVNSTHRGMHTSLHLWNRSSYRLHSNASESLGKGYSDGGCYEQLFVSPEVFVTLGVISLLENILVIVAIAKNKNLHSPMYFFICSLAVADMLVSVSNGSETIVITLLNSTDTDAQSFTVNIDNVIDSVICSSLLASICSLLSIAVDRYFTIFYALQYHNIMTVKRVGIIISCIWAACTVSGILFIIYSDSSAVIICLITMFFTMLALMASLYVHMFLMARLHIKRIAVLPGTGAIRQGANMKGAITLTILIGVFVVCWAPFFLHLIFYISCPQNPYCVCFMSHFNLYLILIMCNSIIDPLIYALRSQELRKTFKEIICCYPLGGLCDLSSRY
T2 sequence (Q01726 whole entry): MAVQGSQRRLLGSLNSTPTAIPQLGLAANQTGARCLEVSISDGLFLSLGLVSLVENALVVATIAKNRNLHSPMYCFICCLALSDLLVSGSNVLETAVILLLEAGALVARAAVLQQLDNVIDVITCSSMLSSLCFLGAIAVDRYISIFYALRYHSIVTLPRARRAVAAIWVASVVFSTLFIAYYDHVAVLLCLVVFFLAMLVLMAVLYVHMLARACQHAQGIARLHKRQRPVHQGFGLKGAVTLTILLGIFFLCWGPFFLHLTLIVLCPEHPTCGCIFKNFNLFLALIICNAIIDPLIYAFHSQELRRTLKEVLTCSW
T3 sequence (P41968 whole entry): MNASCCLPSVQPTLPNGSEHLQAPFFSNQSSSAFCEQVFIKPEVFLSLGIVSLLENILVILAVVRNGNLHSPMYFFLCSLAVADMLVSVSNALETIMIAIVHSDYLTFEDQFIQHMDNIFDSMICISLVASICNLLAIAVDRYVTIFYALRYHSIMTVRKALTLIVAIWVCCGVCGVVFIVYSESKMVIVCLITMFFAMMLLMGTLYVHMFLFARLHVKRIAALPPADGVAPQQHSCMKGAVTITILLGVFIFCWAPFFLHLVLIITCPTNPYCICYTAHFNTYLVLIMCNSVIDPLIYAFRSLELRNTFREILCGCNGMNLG
T4 sequence (P70596 whole entry): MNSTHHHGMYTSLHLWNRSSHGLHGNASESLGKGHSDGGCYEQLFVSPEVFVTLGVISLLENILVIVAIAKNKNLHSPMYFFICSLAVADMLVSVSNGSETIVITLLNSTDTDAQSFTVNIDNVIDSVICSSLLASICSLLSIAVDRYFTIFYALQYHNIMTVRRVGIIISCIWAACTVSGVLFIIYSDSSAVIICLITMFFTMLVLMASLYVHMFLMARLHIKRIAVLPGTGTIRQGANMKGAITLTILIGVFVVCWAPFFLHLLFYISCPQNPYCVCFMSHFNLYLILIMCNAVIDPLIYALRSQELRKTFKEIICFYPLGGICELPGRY

EC50 (human MC4 receptor) [nM]	EC50 (rat MC4 receptor) [nM]	SMILES	EC50 (human MC1 receptor) [nM]	EC50 (human MC3 receptor) [nM]	ED40 ([1]; iv) [mg/kg]	ED40 [1, 2] [mg/kg]
14		CC(=O)N[C@@H](CC1CCCC1)C(=O)N1CCN(C(=O)[C@@H]2CN(C(C)(C)C)C[C@H]2c2ccc(F)cc2F)[C@@H](C)C1.Cl [Example 16, N-((2S)-1-[(3S)-4-{[(3S,4R)-1-tert-butyl-4-(2,4-difluorophenyl)pyrrolidin-3-yl]carbonyl}-3-methylpiperazin-1-yl]-3-cyclopentyl-1-oxopropan-2-yl) acetamide monohydrochloride]				11
23	7.6	CC(=O)N[C@@H](CC(C)(C)C)C(=O)N1CCN(C(=O)[C@@H]2CN(C3CCOCC3)C[C@H]2c2ccc(Cl)cc2F)[C@@H](C)C1.Cl [Example 20, N-{(2S)-1-[(3S)-4-{[(3 S,4R)-4-(4-chloro-2-fluorophenyl)-1-(tetrahydro-2H-pyran-4-yl)pyrrolidin-3-yl]carbonyl}-3-methylpiperazin-1-yl]-4,4-dimethyl-1-oxopentan-2-yl}acetamide monohydrochloride]	8000	1200		40

SMILES	EC50 (human MC4 receptor) [nM]	EC50 (rat MC4 receptor) [nM]	EC50 (human MC1 receptor) [nM]	EC50 (human MC3 receptor) [nM]	ED40 ([1]; iv) [mg/kg]	ED40 [1, 2] [mg/kg]
CC(=O)N[C@@H](CC(C)(C)C)C(=O)N1C[C@H](C)N(C(=O)[C@@H]2CN(C3CCOCC3)C[C@H]2c2ccc(Cl)cc2F)C[C@H]1C [Example 3]	8		5700	310	8.9	

Reference: patent US10710988B2, “Piperazine derivative” (Astellas Pharma Inc., priority 2016, dated 2020)
